Test results: paper PMC4658304 (Nuclear medicine and biology, 2015)
Where “and” joins values, the source holds several entries; their conditions need not be identical. Equal values may be shown once. Read-outs that look alike come from different tables or passages of the source.

Legend:
[1] = Stability in sodium phosphate buffer; type: physicochemical; conditions: sodium phosphate buffer 0.15 M pH 7.4, 57 min, room temperature, n = 4
[2] = Stability of formulated radioligand in saline containing ethanol; type: physicochemical; conditions: saline containing ethanol (10% v/v), 1 h, room temperature, HPLC
[3] = Plasma free fraction; type: in vitro ADME; conditions: rhesus monkey plasma, pre-blocked condition (JNJ16259685 3 mg/kg i.v.), n = 3
[4] = Stability in monkey whole blood and plasma; type: in vitro ADME; conditions: 30 min, room temperature
[5] = Emergence of radiometabolites in monkey plasma; type: in vivo, rhesus monkey
[6] = molecular target: T1, mGluR1 (Macaca mulatta, UniProt I2CU04); conditions: baseline
[7] = monkey brain homogenates, 30 min, room temperature
[8] = cited from earlier work
[9] = molecular target: T1, mGluR1; test: Two-tissue compartmental modeling of PET data
[10] = molecular target: T1, mGluR1; conditions: cited from earlier work; for peak uptake in mGluR1-rich cerebellum: rhesus monkey
[11] = test system: mGluR1; conditions: read-out: IC50 (mGluR1 affinity); mGluR1 radioligand affinity; cited from earlier work

T1 sequence (I2CU04 19-1195): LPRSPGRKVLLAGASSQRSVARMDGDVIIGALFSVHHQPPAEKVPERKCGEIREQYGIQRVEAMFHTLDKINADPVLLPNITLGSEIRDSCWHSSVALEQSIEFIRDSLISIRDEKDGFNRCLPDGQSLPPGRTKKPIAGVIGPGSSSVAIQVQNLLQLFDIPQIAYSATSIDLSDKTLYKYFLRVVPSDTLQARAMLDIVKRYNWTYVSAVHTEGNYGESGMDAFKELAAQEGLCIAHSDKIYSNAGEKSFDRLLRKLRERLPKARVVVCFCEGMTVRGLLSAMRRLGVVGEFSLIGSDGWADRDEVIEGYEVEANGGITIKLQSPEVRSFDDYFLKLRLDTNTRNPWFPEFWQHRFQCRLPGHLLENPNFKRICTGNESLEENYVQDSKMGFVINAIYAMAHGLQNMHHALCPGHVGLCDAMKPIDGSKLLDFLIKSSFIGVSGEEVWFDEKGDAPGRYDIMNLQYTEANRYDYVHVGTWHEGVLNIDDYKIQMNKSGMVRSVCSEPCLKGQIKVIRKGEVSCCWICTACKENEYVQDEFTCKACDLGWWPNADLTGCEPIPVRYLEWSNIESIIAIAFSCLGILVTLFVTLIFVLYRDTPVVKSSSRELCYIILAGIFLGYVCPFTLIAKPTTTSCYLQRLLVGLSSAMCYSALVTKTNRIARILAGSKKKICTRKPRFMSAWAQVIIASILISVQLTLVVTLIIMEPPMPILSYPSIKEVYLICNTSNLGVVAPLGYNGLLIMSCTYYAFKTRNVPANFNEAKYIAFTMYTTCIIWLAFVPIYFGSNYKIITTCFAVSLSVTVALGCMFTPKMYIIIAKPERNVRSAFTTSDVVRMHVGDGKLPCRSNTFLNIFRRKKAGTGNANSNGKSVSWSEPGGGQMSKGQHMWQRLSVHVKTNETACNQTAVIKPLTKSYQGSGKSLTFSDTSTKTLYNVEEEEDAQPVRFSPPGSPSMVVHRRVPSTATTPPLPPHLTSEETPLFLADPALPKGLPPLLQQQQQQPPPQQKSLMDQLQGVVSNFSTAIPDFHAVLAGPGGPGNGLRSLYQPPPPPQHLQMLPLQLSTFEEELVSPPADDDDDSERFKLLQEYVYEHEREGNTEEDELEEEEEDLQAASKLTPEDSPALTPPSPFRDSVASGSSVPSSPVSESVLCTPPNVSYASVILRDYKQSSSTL

CNc1cc(-c2csc(N(C)C(=O)c3ccc(F)cc3)n2)ncn1 [[^11C]FIMX, [carbonyl-^11C]4-Fluoro-N-methyl-N-(4-(6-(methylamino)pyrimidin-4-yl)thiazol-2-yl)benzamide]
remaining fraction of original radiochemical purity in buffer [1]: 79.1 ± 3.3% | unchanged radioligand in formulation [2]: > 97% | plasma free fraction (fP) [3]: 0.042 ± 0.003 | unchanged radioligand in plasma ([4]; monkey plasma): 91% | unchanged radioligand in whole blood ([4]; monkey whole blood): 92% | percentage of total plasma radioactivity represented by parent ([5]; baseline, 10 min after i.v. injection): 31% | percentage of total plasma radioactivity represented by parent ([5]; baseline, 30 min after i.v. injection): 21% | percentage of total plasma radioactivity represented by parent ([5]; preblocked condition, 10 min after i.v. injection): 43% | percentage of total plasma radioactivity represented by parent ([5]; preblocked condition, 30 min after i.v. injection): 31% | peak radioactivity uptake in frontal cortex [6]: 4.23 SUV | peak radioactivity uptake in hippocampus [6]: 4.47 SUV | peak radioactivity uptake in occipital cortex [6]: 3.67 SUV | peak radioactivity uptake in thalamus [6]: 6.00 SUV | cerebellum radioactivity level at 85 min ([6]; 85 min after injection): 5.74 SUV | decrease of cerebellum radioactivity from peak ([6]; at 85 min after injection): 32% | time of peak regional brain radioactivity uptake ([6]; i.v.): around 12.5 min | peak radioactivity uptake in cerebellum ([6]; receptor-rich cerebellum): 8.50 SUV and 8.5 SUV | unchanged radioligand in brain homogenates [7]: 99.4% | logD obtained without correction for instability [8]: 2.52 | imaging time after which VT appeared stable in all brain regions ([9]; baseline): 60 min | imaging time by which VT is within 10% of terminal value ([9]; baseline scans, two-tissue compartment model): ≤ 40 min | reduction of VT in cerebellum by preblock ([9]; baseline vs preblock with JNJ16259685): ~90% | VT in cerebellum ([9]; rhesus monkey cerebellum, baseline): 13 mL/cm^3

Cc1ccc(C(=O)N(C)c2nc(-c3cc(NC(C)C)ncn3)cs2)cc1 [[^11C]ITDM, [^11C]N-[4-[6-(isopropylamino)pyrimidin-4-yl]-1,3-thiazol-2-yl]-4-methyl-N-methylbenzamide]
peak uptake in mGluR1-rich cerebellum [10]: < 1.3 SUV

COc1ccc(C(=O)N(C)c2nc(-c3cc(NC(C)C)ncn3)cs2)cc1 [[^11C]ITMM, [^11C]N-[4-[6-(isopropylamino)pyrimidin-4-yl]-1,3-thiazol-2-yl]-4-methoxy-N-methylbenzamide]
peak uptake in mGluR1-rich cerebellum [10]: < 1.3 SUV

CNc1cc(-c2csc(N(C)C(=O)c3ccc([18F])cc3)n2)ncn1 [[^18F]FIMX, [^18F]4-fluoro-N-methyl-N-(4-(6-(methylamino)pyrimidin-4-yl)thiazol-2-yl)benzamide]
IC50 [11]: 1.8 nM | decrease of cerebellum radioactivity from peak ([10]; at 90 min after injection): 37%
